Consider 19 compounds from paper PMC4358806 (European Journal of Medicinal Chemistry, 2013).

The subject of one data set is tumor cell lines. Description: Cytostatic activity, ranges over several tumor cell lines. The class given is cell-based.
For data set [1], the system named is HCV replicon (type 1b). Particulars: read-out: EC50 HCV replicon, Huh 7 cells; cited from earlier work. (In general: A replicon is a self-replicating genome or part of one, used to study replication in cells.)
For another data set, the system named is Huh 7 cells. The settings on record: cited from earlier work.
Another data set concerns Feline herpes virus. The experiment in a line: organism not typed. It is filed as cell-based. The settings on record: read-out: EC50 Feline herpes virus.
In data set [2] the test system is HEL and CrFK cell cultures. Description: Cytotoxicity. It is filed as cell-based.
Data set [3] deals with human and feline herpes viruses. Description: organism not typed. The class given is cell-based. The settings on record: read-out: EC50 against human and feline herpes viruses.
In data set [4] the test system is HCV replicon (type 1b). The experiment in a line: HCV replicon assay. It is filed as cell-based. The settings on record: L-alanine vs D-alanine derivative.
The next data set concerns HIV-2(ROD). The class given is cell-based.
A further data set has as its system HIV-1(IIIB). It is filed as cell-based.
The next data set has as its system HIV-1 and HIV-2. It is filed as cell-based.
Data set [5] in a line: Cytotoxicity in HCV replicon assay, Huh 7 cells. Particulars: human, Huh 7 cells (HCV replicon type 1b). The class given is cell-based.
The next data set concerns the target T1, carboxypeptidase Y (Saccharomyces cerevisiae, UniProt P00729).
T1 sequence (P00729 112-532): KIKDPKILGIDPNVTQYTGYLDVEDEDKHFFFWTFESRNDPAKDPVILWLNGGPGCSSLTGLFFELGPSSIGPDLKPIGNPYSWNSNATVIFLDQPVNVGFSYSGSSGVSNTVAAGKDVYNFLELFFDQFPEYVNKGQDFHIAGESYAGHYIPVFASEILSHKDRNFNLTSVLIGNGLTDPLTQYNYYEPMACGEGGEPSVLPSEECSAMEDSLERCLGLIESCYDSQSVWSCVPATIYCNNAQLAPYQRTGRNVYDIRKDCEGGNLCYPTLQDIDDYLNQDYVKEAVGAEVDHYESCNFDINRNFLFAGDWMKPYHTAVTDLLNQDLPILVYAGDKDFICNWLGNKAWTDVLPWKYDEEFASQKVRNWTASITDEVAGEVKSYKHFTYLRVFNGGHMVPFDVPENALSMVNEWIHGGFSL
The experiment in a line: Carboxypeptidase Y-mediated cleavage monitored by 31P NMR. The class given is in vitro ADME. Particulars: d6-acetone and Trizma buffer pH 7.6, room temperature.

A further data set relates to HIV-1 (X4LAI.04). Description: microbe, parasite or virus in culture. It is filed as cell-based.
Data set [6] deals with L1210 (mouse lymphocytic leukemia cells). The class given is cell-based. Particulars: read-out: IC50 (50% inhibitory concentration), proliferation.
Data set [7] deals with Herpes simplex virus 1(KOS). It is filed as cell-based, herpes simplex virus type 1. The settings on record: read-out: EC50 Herpes simplex virus 1(KOS).
The subject of data set [8] is Herpes simplex virus 2 (G). It is filed as cell-based, herpes simplex virus type 2. Particulars: read-out: EC50 Herpes simplex virus 2 (G).
A further data set concerns HeLa/TK− cells. The class given is cell-based, human. Particulars: read-out: IC50 (50% inhibitory concentration), proliferation.
Data set [9] relates to HeLa (human cervical carcinoma cells). The class given is cell-based. The settings on record: read-out: IC50 (50% inhibitory concentration), proliferation.
The subject of data set [10] is CEM (human T-lymphocyte cells). The class given is cell-based. The settings on record: read-out: IC50 (50% inhibitory concentration), proliferation.
In data set [11] the test system is Herpes simplex virus 1TK−(KOS)ACVr. It is filed as cell-based, herpes simplex virus type 1. The settings on record: read-out: EC50 Herpes simplex virus 1TK−(KOS)ACVr.
[12] abbreviates: read-out: IC50, range over all tested tumor cell lines.
The mark [13] stands for this setting: read-out: IC50, range over cell lines.

Read-outs that look alike come from different tables or passages of the source. Bounds are passed on as bounds.

As to `Nc1ccn([C@@H]2CS[C@H](CO)O2)c(=O)n1` [Compound 5, lamivudine, reference compound], the IC50 in the data set with tumor cell lines (setting [12]) is more than 250 µM.

Regarding `[N-]=[N+]=N[C@]1(CO)O[C@@H](n2ccc(=O)[nH]c2=O)[C@H](O)[C@@H]1O` [Compound 7, 4′-azidouridine], the EC50 (in general, the concentration needed to bring the measured effect to its halfway point) with HCV replicon (type 1b) [1] was more than 100 µM. The CC50 – broadly, the concentration that lowers cell viability or growth by half – in the data set with Huh 7 cells was more than 100 µM.

Regarding `[N-]=[N+]=N[C@]1(CO)O[C@@H](n2ccc(N)nc2=O)[C@H](O)[C@@H]1O` [Compound 8, 4′-azidocytidine], in the data set on HCV replicon (type 1b) [1], the 50% effective concentration (EC50) is 7.13 µM. The CC50 with Huh 7 cells was more than 100 µM.

As for `NC(=O)c1ncn([C@@H]2O[C@H](CO)[C@@H](O)[C@H]2O)n1` [Compound 9, ribavirin], in the data set on HCV replicon (type 1b) [1], the EC50 is 87 µM. Also, the CC50 in the data set on Huh 7 cells was more than 100 µM.

`Nc1nc2c(ncn2COCCO)c(=O)[nH]1` [Compound 10, acyclovir, reference compound]: the concentration for a half-maximal effect (EC50) in the data set on HCV replicon (type 1b) [1] is 30 µM; in the data set on Feline herpes virus, more than 100 µM. The CC50 with Huh 7 cells is more than 30 µM. Moreover, in data set [2], the “MCC (cytotoxicity)” value is more than 100 µM.

On to `NC(=O)c1ncn([C@@H]2O[C@H](CO)[C@@H](O)[C@H]2O)c1N` [Compound 13, acadesine, reference compound], for which the EC50 (in the data set on Feline herpes virus; in data set [3]) was more than 100 µM in each case. For the same compound, the “MCC (cytotoxicity)” value in [2] was more than 100 µM.

Consider `CCOc1nc(N)nc2c1ncn2[C@@H]1O[C@H](COP(=O)(N[C@@H](C)C(=O)OCC(C)(C)C)N[C@@H](C)C(=O)OCC(C)(C)C)[C@@H](O)[C@@]1(C)F` [Compound 14, (2R,3R,4R,5R)-5-(2-amino-6-ethoxy-9H-purin-9-yl)-4-fluoro-2-(hydroxymethyl)-4-methyltetrahydrofuran-3-ol-5′-O-bis-(2,2-dimethylpropoxy-L-alaninyl)-phosphate], for which, in the data set on HCV replicon (type 1b) [4], the “improved anti-HCV activity compared to 15” value is listed as 4 fold.

For `C[C@H](NP(=O)(N[C@@H](C)C(=O)OCC(C)(C)C)OC[C@@H]1CC[C@H](n2cnc3c(N)ncnc32)O1)C(=O)OCC(C)(C)C` [Compound 19, ddA-5′-O-bis-(2,2-dimethylpropoxy-L-alaninyl)-phosphate], the “boost of activity compared to parent nucleoside, HIV-2” value in the data set on HIV-2(ROD) amounted to 57 fold. Also, the “boost of activity compared to parent nucleoside, HIV-1” value in the data set with HIV-1(IIIB) is reported as 72 fold. In addition, the IC50 in the data set on tumor cell lines (setting [13]) lay within 35 to 76 µM.

On to `Cc1cn([C@H]2C[C@H](N=[N+]=[N-])[C@@H](COP(=O)(N[C@@H](C)C(=O)OCc3ccccc3)N[C@@H](C)C(=O)OCc3ccccc3)O2)c(=O)[nH]c1=O` [Compound 20, 3′-azido-3′-deoxythymidine-5′-O-bis(benzoxy-L-alaninyl)-phosphate], for which the “anti-HIV activity compared to the parent” value in the data set on HIV-1 and HIV-2 is on record as “equipotent to the parent”.

With `C[C@H](NP(=O)(N[C@@H](C)C(=O)OCc1ccccc1)OC[C@H]1O[C@@H](n2ccc(N)nc2=O)CS1)C(=O)OCc1ccccc1` [Compound 25, 3TC-5′-O-bis(benzoxy-L-alaninyl)-phosphate], in the data set with tumor cell lines (setting [12]), the IC50 lay within 38 to 116 µM.

In the case of `C[C@H](NP(=O)(N[C@@H](C)C(=O)OCc1ccccc1)OC[C@H]1O[C@@H](n2cnc(C(N)=O)n2)[C@H](O)[C@@H]1O)C(=O)OCc1ccccc1` [Compound 30, ribavirin-5′-O-bis(benzoxy-L-alaninyl)-phoshate], the CC50 in [5] is more than 100 µM.

As to `C[C@H](NP(=O)(N[C@@H](C)C(=O)OCc1ccccc1)OCCOCn1cnc2c(=O)[nH]c(N)nc21)C(=O)OCc1ccccc1` [Compound 32, acyclovir-5′-O-bis[(benzoxy-L-alaninyl)]-phosphate], the “time to full conversion into metabolite” value on carboxypeptidase Y was 7.5 h. Further, the “boost in activity compared to ACV, HIV-1” value with HIV-1 (X4LAI.04) is on record as more than 60 fold. The EC50 in the data set on HIV-1 (X4LAI.04) (Human immunodeficiency virus 1, MT4, 72 h, read-out: EC50 HIV-1) is 2 to 4 µM; in the data set on Feline herpes virus, more than 100 µM. Also, the “MCC (cytotoxicity)” value in data set [2] was more than 100 µM.

`C[C@H](NP(=O)(N[C@@H](C)C(=O)OCC(C)(C)C)OCCOCn1cnc2c(=O)[nH]c(N)nc21)C(=O)OCC(C)(C)C` [Compound 33, acyclovir-5′-O-bis[(2,2-dimethylpropoxy-L-alaninyl)]-phosphate]: the “boost in activity compared to ACV, HIV-1” value in the data set with HIV-1 (X4LAI.04) is more than 60 fold. For the same compound, the EC50 with Feline herpes virus was more than 100 µM. In data set [2], the “MCC (cytotoxicity)” value was more than 100 µM.

Regarding `C[C@H](NP(=O)(N[C@@H](C)C(=O)OCc1ccccc1)OC[C@@H]1C=C[C@H](n2cnc3c(NC4CC4)nc(N)nc32)C1)C(=O)OCc1ccccc1` [Compound 34, abacavir-5′-O-bis(benzoxy-L-alaninyl)-phosphate], the IC50 with tumor cell lines (setting [13]) was in the range of 19 to 54 µM.

On to `C[C@H](NP(=O)(N[C@@H](C)C(=O)OCC(C)(C)C)OC[C@@H]1C=C[C@H](n2cnc3c(NC4CC4)nc(N)nc32)C1)C(=O)OCC(C)(C)C` [Compound 35, abacavir-5′-O-bis-(2,2-dimethylpropoxy-L-alaninyl)-phosphate], for which the IC50 with tumor cell lines (setting [13]) lay in the range of 19 to 54 µM.

Consider `CCCCCc1ccc(-c2cc3cn([C@H]4C[C@H](O)[C@@H](COP(=O)(N[C@@H](C)C(=O)OCc5ccccc5)N[C@@H](C)C(=O)OCc5ccccc5)O4)c(=O)nc3o2)cc1` [Compound 36, 3-(2′-deoxy-β-D-ribofuranosyl)-6-(4-n-pentylphenyl)-2,3-dihydrofuro-[2,3-d]pyrimidin-2-one-5′-O-bis-(benzoxy-L-alaninyl)-phosphate], for which the EC50 (in the data set with Feline herpes virus; in [3]) was more than 100 µM in each case.

As for `C[C@H](NP(=O)(N[C@@H](C)C(=O)OCc1ccccc1)OC[C@H]1O[C@@H](n2cnc(C(N)=O)c2N)[C@H](O)[C@@H]1O)C(=O)OCc1ccccc1` [Compound 38, acadesine-5′-O-bis(benzoxy-L-alaninyl)-phosphate], in the data set with Feline herpes virus, the EC50 was more than 100 µM. Further, in [2], the “MCC (cytotoxicity)” value is more than 100 µM.

On to `COC(=O)[C@H](C)NP(=O)(N[C@@H](C)C(=O)OC)OC[C@H]1O[C@@H](n2cnc(C(N)=O)c2N)[C@H](O)[C@@H]1O` [Compound 39, acadesine-5′-O-bis(methoxy-L-alaninyl)-phosphate], for which, in the data set on Feline herpes virus, the EC50 is more than 100 µM. Moreover, the “MCC (cytotoxicity)” value in [2] was more than 100 µM.

Turning to “acadesine-5′-O-bis(2,2-dimethylpentoxy-L-alaninyl)-phosphate [Compound 40]”, the IC50 (in [6]; with HeLa/TK− cells; in [9]; in data set [10]) was more than 250 µM throughout. Moreover, the concentration for a half-maximal effect (EC50) (in data set [7]; with Feline herpes virus; in [8]; in data set [11]) was more than 100 µM throughout. The “MCC (cytotoxicity)” value in data set [2] is more than 100 µM.
